The target of the assay is T1, CDK2 (Homo sapiens, UniProt P24941).
T1 construct: endogenous in cells; host or cells: OVCAR3 cells
The assay is described as follows: Phospho-RB measurement in OVCAR3 cells (HTRF phospho-RB S807/811). As to conditions: phosphorylation of RB protein at S807/811, HTRF, 24 h compound treatment, 0.3 to 10,000 nM, read-out: pRb (uM). Type of assay: cell-based. How it is done:
The ability of compounds of Formula (I) to inhibit CDK2 was determined in OVCAR3 cells. Phosphorylation of RB protein at S807/811 were measured using HTRF phospho-RB cellular kits (Cat #64RBS807PEG) from Cisbio.
On Day 1, OVCAR3 cells were seeded into 96-well tissue-culture treated plates at 20,000 cells/well in 200 μL and incubated overnight at 37° C. in CO2 atmosphere. On Day 2, the cells were treated with test compounds at concentrations from 0.3 to 10,000 nM using HP D300 digital dispenser. Twenty-four hours after compound treatment, cell culture media was removed by flicking the plate and tapping the plate against clean paper towel. Immediately 30 μL 1× lysis buffer was supplemented from the kit and the plate was incubated at room temperature on shaker for 30 min. After homogenization by pipetting up and down, 8 μL cell lysate from 96-well cell culture plate was transferred to 384-well small volume white detection plate. 2 μL premixed detection solution was added and the plate was covered with sealer. To prepare the detection solution, d2 conjugated-phospho-RB antibody and Eu-cryptate conjugated phosphor-RB antibody were diluted into detection buffer following manufacturer's instruction.
Detection plates were incubated for 4 h at room temperature and read on ClarioStar (BMG Labtech) in TR-FRET mode ([…]). The TR-FRET ratio (665 nM1/620 nM) was plotted against the compound concentration and normalized to DMSO controls. Half maximal inhibition concentration (IC50) values are calculated with a four-parameter logistic fit using GraphPad Prism (version 8; La Jolla, CA).

Consider `O=S1(=O)C[C@@H]2[C@H](C1)[C@H]2Nc1nccc(-c2sc(C34CC(C3)C4)nc2-c2cccc(NS(=O)(=O)c3c(OC(F)F)cccc3C(F)(F)F)c2F)n1` [Example 125, N-(3-(2-(bicyclo[1.1.1]pentan-1-yl)-5-(2-(((1R,5S,6r)-3,3-dioxido-3-thiabicyclo[3.1.0]hexan-6-yl)amino)pyrimidin-4-yl)thiazol-4-yl)-2-fluorophenyl)-2-(difluoromethoxy)-6-(trifluoromethyl)-benzenesulfonamide], for which the IC50 turned out to be 4.51 µM.

`O=S1(=O)CC2(CC(Nc3nccc(-c4sc(N5C6CCC5CN(CCC(F)(F)F)C6)nc4-c4cccc(NS(=O)(=O)c5c(F)cccc5F)c4F)n3)C2)C1` [Example 142, N-(3-(5-(2-((2,2-dioxido-2-thiaspiro[3.3]heptan-6-yl)amino)-pyrimidin-4-yl)-2-(3-(3,3,3-trifluoropropyl)-3,8-diazabicyclo-[3.2.1]octan-8-yl)thiazol-4-yl)-2-fluorophenyl)-2,6-difluorobenzenesulfonamide]: the IC50 worked out at 0.32 µM.

Turning to `COc1cccc(C(F)(F)F)c1S(=O)(=O)Nc1cccc(-c2nc(N3C4CCC3CN(C)C4)sc2-c2ccnc(NC3CC4(C3)CS(=O)(=O)C4)n2)c1F` [Example 74, N-(3-(5-(2-((2,2-dioxido-2-thiaspiro[3.3]heptan-6-yl)amino)-pyrimidin-4-yl)-2-(3-methyl-3,8-diazabicyclo[3.2.1]octan-8-yl)thiazol-4-yl)-2-fluorophenyl)-2-methoxy-6-(trifluoromethyl)benzenesulfonamide], the IC50 worked out at 0.63 µM.

`C[C@@H]1COC[C@@H](C)N1c1nc(-c2cccc(NS(=O)(=O)c3c(F)cccc3F)c2F)c(-c2ccnc(NC3CC4(C3)CS(=O)(=O)C4)n2)s1` [Example 56, N-(3-(2-((3R,5R)-3,5-dimethylmorpholino)-5-(2-((2,2-dioxido-2-thiaspiro[3.3]heptan-6-yl)amino)pyrimidin-4-yl)thiazol-4-yl)-2-fluorophenyl)-2,6-difluorobenzenesulfonamide]: the IC50 worked out at 0.11 µM.

For `O=S1(=O)CC2CCC(C1)N2c1nc(-c2cccc(NS(=O)(=O)c3c(F)cccc3F)c2F)c(-c2ccnc(NC3CC4(C3)CS(=O)(=O)C4)n2)s1` [Example 48, N-(3-(5-(2-((2,2-dioxido-2-thiaspiro[3.3]heptan-6-yl)amino)-pyrimidin-4-yl)-2-(3,3-dioxido-3-thia-8-azabicyclo[3.2.1]octan-8-yl)thiazol-4-yl)-2-fluorophenyl)-2,6-difluorobenzenesulfonamide], the IC50 came out at 7.13 µM.

On to `O=S1(=O)CC2(CC(Nc3nccc(-c4sc(N5C6CCC5CN(C5CC(F)(F)C5)C6)nc4-c4cccc(NS(=O)(=O)c5c(F)cccc5C(F)(F)F)c4F)n3)C2)C1` [Example 149, N-(3-(2-(3-(3,3-difluorocyclobutyl)-3,8-diazabicyclo[3.2.1]octan-8-yl)-5-(2-((2,2-dioxido-2-thiaspiro[3.3]heptan-6-yl)amino)pyrimidin-4-yl)thiazol-4-yl)-2-fluorophenyl)-2-fluoro-6-(trifluoromethyl)benzenesulfonamide], for which the IC50 stood at 0.09 µM.

For the compound `O=S1(=O)CC2(CC(Nc3nccc(-c4sc(C56CC(C5)C6)nc4-c4cccc(NS(=O)(=O)c5c(F)cccc5OC(F)F)c4F)n3)C2)C1` [Example 58, N-(3-(2-(bicyclo[1.1.1]pentan-1-yl)-5-(2-((2,2-dioxido-2-thiaspiro[3.3]heptan-6-yl)amino)pyrimidin-4-yl)thiazol-4-yl)-2-fluorophenyl)-2-(difluoromethoxy)-6-fluorobenzenesulfonamide], the IC50 amounted to 0.09 µM.

Turning to `CS(=O)(=O)[C@H]1CC[C@@H](Nc2nccc(-c3sc(C45CC(F)(C4)C5)nc3-c3cccc(NS(=O)(=O)c4c(F)cccc4C(F)(F)F)c3F)n2)CC1` [Example 87, 2-fluoro-N-(2-fluoro-3-(2-(3-fluorobicyclo[1.1.1]pentan-1-yl)-5-(2-(((1s,4s)-4-(methylsulfonyl)cyclohexyl)-amino)pyrimidin-4-yl)thiazol-4-yl)phenyl)-6-(trifluoromethyl)benzenesulfonamide], the IC50 was 0.077 µM.

As to `O=C1CC2CCC(C1)N2c1nc(-c2cccc(NS(=O)(=O)c3c(F)cccc3F)c2F)c(-c2ccnc(NC3CC4(C3)CS(=O)(=O)C4)n2)s1` [Example 17, N-(3-(5-(2-((2,2-dioxido-2-thiaspiro[3.3]heptan-6-yl)amino)pyrimidin-4-yl)-2-(3-oxo-8-azabicyclo[3.2.1]octan-8-yl)thiazol-4-yl)-2-fluorophenyl)-2,6-difluorobenzenesulfonamide], the IC50 worked out at 0.48 µM.

On to `O=S1(=O)CC2C(C1)C2Nc1nccc(-c2sc(N3C4CCC3COC4)nc2-c2cccc(NS(=O)(=O)c3c(F)cccc3C(F)(F)F)c2F)n1` (stereo not drawn) [Example 112, N-(3-(2-(3-oxa-8-azabicyclo[3.2.1]octan-8-yl)-5-(2-((3,3-dioxido-3-thiabicyclo[3.1.0]hexan-6-yl)amino)pyrimidin-4-yl)thiazol-4-yl)-2-fluorophenyl)-2-fluoro-6-(trifluoromethyl)benzenesulfonamide], for which the IC50 stood at 0.03 µM.

On to `CS(=O)(=O)[C@H]1CC[C@H](Nc2nccc(-c3sc(C4(C(F)(F)F)CC4)nc3-c3cccc(NS(=O)(=O)c4c(Cl)cccc4C(F)(F)F)c3F)n2)CC1` [Example 133, 2-chloro-N-(2-fluoro-3-(5-(2-(((1r,4r)-4-(methylsulfonyl)-cyclohexyl)amino)pyrimidin-4-yl)-2-(1-(trifluoromethyl)-cyclopropyl)thiazol-4-yl)phenyl)-6-(trifluoromethyl)benzene-sulfonamide], for which the IC50 came out at 0.12 µM.

On to `O=S1(=O)CC2(CC(Nc3nccc(-c4sc(C56CC(C5)C6)nc4-c4cccc(NS(=O)(=O)c5c(F)cccc5C5CC5)c4F)n3)C2)C1` [Example 41, N-(3-(2-(bicyclo[1.1.1]pentan-1-yl)-5-(2-((2,2-dioxido-2-thiaspiro[3.3]heptan-6-yl)amino)pyrimidin-4-yl)thiazol-4-yl)-2-fluorophenyl)-2-cyclopropyl-6-fluorobenzenesulfonamide], for which the IC50 was determined as 0.36 µM.

`CN1CC2CCC(C1)N2c1nc(-c2cccc(NS(=O)(=O)c3c(F)cccc3OC(F)F)c2F)c(-c2ccnc(NC3CC4(C3)CS(=O)(=O)C4)n2)s1` [Example 66, 2-(difluoromethoxy)-N-(3-(5-(2-((2,2-dioxido-2-thiaspiro[3.3]-heptan-6-yl)amino)pyrimidin-4-yl)-2-(3-methyl-3,8-diazabicyclo[3.2.1]octan-8-yl)thiazol-4-yl)-2-fluorophenyl)-6-fluorobenzenesulfonamide]: the IC50 worked out at 0.15 µM.

Consider `O=S1(=O)CC2(CC(Nc3nccc(-c4sc(N5C6CCC5CN(C5CCC5)C6)nc4-c4cccc(NS(=O)(=O)c5c(F)cccc5F)c4F)n3)C2)C1` [Example 52, N-(3-(2-(3-cyclobutyl-3,8-diazabicyclo[3.2.1]octan-8-yl)-5-(2-((2,2-dioxido-2-thiaspiro[3.3]heptan-6-yl)amino)pyrimidin-4-yl)thiazol-4-yl)-2-fluorophenyl)-2,6-difluorobenzenesulfonamide], for which the IC50 is 0.08 µM.

With `O=S1(=O)C[C@@H]2[C@H](C1)[C@H]2Nc1nccc(-c2sc(C34CCC(CC3)CC4)nc2-c2cccc(NS(=O)(=O)c3c(F)cccc3F)c2F)n1` [Example 116, N-(3-(2-(bicyclo[2.2.2]octan-1-yl)-5-(2-(((1R,5S,6r)-3,3-dioxido-3-thiabicyclo[3.1.0]hexan-6-yl)amino)pyrimidin-4-yl)thiazol-4-yl)-2-fluorophenyl)-2,6-difluorobenzenesulfonamide], the IC50 was 0.09 µM.

In the case of `O=S1(=O)CC2(CC(Nc3nccc(-c4sc(N5C6CCC5CN(c5ccccn5)C6)nc4-c4cccc(NS(=O)(=O)c5c(F)cccc5F)c4F)n3)C2)C1` [Example 43, N-(3-(5-(2-((2,2-dioxido-2-thiaspiro[3.3]heptan-6-yl)amino)-pyrimidin-4-yl)-2-(3-(pyridin-2-yl)-3,8-diazabicyclo[3.2.1]octan-8-yl)thiazol-4-yl)-2-fluorophenyl)-2,6-difluorobenzenesulfonamide], the IC50 is 0.46 µM.

As for `CN1CC2CCC(C1)N2c1nc(-c2cccc(NS(=O)(=O)c3c(F)cccc3C(F)(F)F)c2F)c(-c2ccnc(NC3[C@H]4CS(=O)(=O)C[C@@H]34)n2)s1` (stereo partly drawn) [Example 111, N-(3-(5-(2-(((1R,5S,6s)-3,3-dioxido-3-thiabicyclo[3.1.0]hexan-6-yl)amino)pyrimidin-4-yl)-2-(3-methyl-3,8-diazabicyclo[3.2.1]octan-8-yl)thiazol-4-yl)-2-fluorophenyl)-2-fluoro-6-(trifluoromethyl)benzenesulfonamide], the IC50 was 0.08 µM.

As for `CS(=O)(=O)[C@H]1CC[C@H](Nc2nccc(-c3sc(C45CC(C4)C5)nc3-c3cccc(NS(=O)(=O)c4c(F)cccc4C(F)(F)F)c3F)n2)CC1` [Example 36], the IC50 worked out at 0.09 µM.
